This is an account of results in patent US20080027079A1, “DIHYDROOROTATE DEHYDROGENASE INHIBITORS WITH SELECTIVE ANTI-MALARIAL ACTIVITY” (Board of Regents, University of Texas System, priority 2006, published 2008).

Read-outs that look alike come from different tables or passages of the source. Bounds are passed on as bounds.

Experiment [1] addresses human dihydroorotate dehydrogenase (hDHODH) (Homo sapiens, UniProt Q02127). In words: hDHODH enzyme inhibition (DCIP colorimetric or direct orotate assay). In kind it is biochemical. As to the method: (§1) Measurement of enzyme inhibition. For studying inhibition of Plasmodium or human DHODH enzyme, two assays that are in routine use are described, for example, in Baldwin, et al. (2002) J Biol Chem., 277, 41827-41834, and Baldwin, et al. (2005) J. Biol. Chem., 280. 21847-21853. Briefly, these assays are as follows: 1) A […] assay thay that monitors 2,6-dichloroindophenol (DCIP) reduction at 600 nm (e=18.8 mM^−1 cm^−1) is performed as either a continuous assay where absorbance is recorded over time. The assay solution containing 100 mM HEPES, pH 8.0, 150 mM NaCl, 10% glycerol, 0.05% Triton X-[…] CoQ0 (coenzyme QD), […] L-dihydroorotate, and […] DCIP. Reactions are initiated by addition of enzyme to a final concentration of 5-50 nM and the temperature is maintained at 25° C with a circulating water bath. 2) A direct assay that follows the production of orotic acid by measuring the absorbance change at 287 nm (ε=4.3 mM^−1 cm^−1); DCIP is not included, but all other components of the assay are as described in method one. Inhibitor stocks are prepared in DMSO, and the inhibitors, such as GR-34, are added to these assays over a concentration range that encompasses their IC50 value and, the IC50's are determined from a plot of reaction rate in the presence of inhibitor/reaction rate in the absence of inhibitor (vi/vo) versus inhibitor concentration (Eq. 1). [formula]

Experiment [2] has as its target T1, P. falciparum dihydroorotate dehydrogenase (pfDHODH) (Plasmodium falciparum, UniProt Q08210).
T1 sequence (Q08210 24-569): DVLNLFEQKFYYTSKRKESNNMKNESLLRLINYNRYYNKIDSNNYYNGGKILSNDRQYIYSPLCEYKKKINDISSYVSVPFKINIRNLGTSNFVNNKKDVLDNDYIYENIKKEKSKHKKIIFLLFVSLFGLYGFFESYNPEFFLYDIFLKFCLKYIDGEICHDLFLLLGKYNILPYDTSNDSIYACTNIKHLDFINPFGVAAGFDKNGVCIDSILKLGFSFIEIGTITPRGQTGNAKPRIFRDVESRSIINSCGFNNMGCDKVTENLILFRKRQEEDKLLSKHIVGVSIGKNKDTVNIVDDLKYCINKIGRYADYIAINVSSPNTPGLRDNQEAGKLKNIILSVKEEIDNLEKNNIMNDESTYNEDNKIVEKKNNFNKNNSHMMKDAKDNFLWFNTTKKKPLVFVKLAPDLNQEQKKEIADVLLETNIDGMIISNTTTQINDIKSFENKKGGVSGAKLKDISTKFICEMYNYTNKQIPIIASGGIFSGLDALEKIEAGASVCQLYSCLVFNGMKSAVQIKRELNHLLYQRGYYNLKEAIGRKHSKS
Nature of the experiment: biochemical. As to the method: as §1

The next experiment concerns P. falciparum 3D7. Nature of the experiment: 3H-hypoxanthine uptake in P. falciparum-infected erythrocytes in culture (whole cell assay). In kind it is cell-based. Particulars: Plasmodium falciparum, Erythrocyte; 3D7 strain, in vitro. The procedure:
In vitro evaluation of compound efficacy on the human malaria parasite, P. falciparum. To study inhibition of cell proliferation, ^3H-hypoxanthine uptake is measured in drug-treated, P. falciparum-infected erythrocytes grown in culture, pursuant to the methodology of Desjardins, et al. (1979) Antimicrobial Agents and Chemotherapy 16, 710-718, and Zhang and Rathod (2002) Science 296, 545-547.

Sequence of human dihydroorotate dehydrogenase (hDHODH) (Q02127 whole entry): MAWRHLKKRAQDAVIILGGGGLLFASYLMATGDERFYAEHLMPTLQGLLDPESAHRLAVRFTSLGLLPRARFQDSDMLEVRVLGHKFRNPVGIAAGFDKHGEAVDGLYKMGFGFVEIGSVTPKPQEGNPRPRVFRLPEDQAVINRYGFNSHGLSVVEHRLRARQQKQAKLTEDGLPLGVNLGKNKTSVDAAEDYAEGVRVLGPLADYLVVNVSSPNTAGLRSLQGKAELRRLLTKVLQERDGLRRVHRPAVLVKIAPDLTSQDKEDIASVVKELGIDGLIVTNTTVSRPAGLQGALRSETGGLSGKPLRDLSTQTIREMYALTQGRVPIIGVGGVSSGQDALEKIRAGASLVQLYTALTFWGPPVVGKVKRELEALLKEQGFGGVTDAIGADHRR

As for `Cc1cc(Nc2ccc3c(=O)ccoc3c2)n2ncnc2n1` [5-methyl-N-(4H-chromen-4-on-7-yl)-[1,2,4]triazolo[1,5-a]pyrimidin-7-amine], the IC50 in experiment [1] was more than 200000 nM; in experiment [2] (read-out: IC50 pf DHODH) it was 1900 nM.

Regarding `Cc1nc2ncnn2c(Nc2ccc3ccccc3c2)c1C` [5,6-dimethyl-N-(naphthalen-2-yl)-[1,2,4]triazolo[1,5-a]pyrimidin-7-amine], the IC50 in experiment [2] (read-out: IC50 pf DHODH) came to 130 nM.

Regarding `Cc1cc(Nc2ccc3cc4ccccc4cc3c2)n2ncnc2n1` [5-methyl-N-(anthracen-2-yl)-[1,2,4]triazolo[1,5-a]pyrimidin-7-amine], the IC50 in experiment [1] is more than 200000 nM; in experiment [2] (read-out: IC50 pf DHODH), 23 nM. For the same compound, the EC50 in the experiment with P. falciparum 3D7 stood at 120 nM.

Consider `Cc1nc2ncnn2c(Nc2ccc3cc4ccccc4cc3c2)c1C` [N-(anthracen-2-yl)-5,6-dimethyl-[1,2,4]triazolo[1,5-a]pyrimidin-7-amine], for which, in experiment [2] (read-out: IC50 pf DHODH), the IC50 is 250 nM.

Consider `CCc1cc(Nc2ccc3cc4ccccc4cc3c2)n2ncnc2n1` [N-(anthracen-2-yl)-5-ethyl-[1,2,4]triazolo[1,5-a]pyrimidin-7-amine], for which the IC50 in experiment [2] (read-out: IC50 pf DHODH) is 240 nM. `FC(F)(F)c1cc(Nc2ccc3ccccc3c2)n2ncnc2n1` [5-trifluoromethyl-N-(naphthalen-2-yl)-[1,2,4]triazolo[1,5-a]pyrimidin-7-amine]: the IC50 in experiment [1] is more than 200000 nM; in experiment [2] (read-out: IC50 pf DHODH) it was 126 nM. On to `CCc1cc(Nc2ccc3ccccc3c2)n2ncnc2n1` [5-ethyl-N-(naphthalen-2-yl)-[1,2,4]triazolo[1,5-a]pyrimidin-7-amine], for which, in experiment [2] (read-out: IC50 pf DHODH), the IC50 turned out to be 280 nM. With `Cc1cc(Nc2cc3ccccc3cc2O)n2ncnc2n1` [5-methyl-N-(3-hydroxynaphthalen-2-yl)-[1,2,4]triazolo[1,5-a]pyrimidin-7-amine], the IC50 in experiment [2] (read-out: IC50 pf DHODH) was 2400 nM. For the same compound, the EC50 with P. falciparum 3D7 amounted to 600 nM. With `Cc1cc(Nc2ccc3ncccc3c2)n2ncnc2n1` [5-methyl-N-(quinolin-6-yl)-[1,2,4]triazolo[1,5-a]pyrimidin-7-amine], the figures for the IC50 in experiment [1] and in experiment [2] were more than 200000 nM and 1300 nM, respectively. With `Cc1cc(Nc2ccc3ccccc3c2)n2ncnc2n1` [5-methyl-N-(naphthalen-2-yl)-[1,2,4]triazolo[1,5-a]pyrimidin-7-amine], the IC50 in experiment [1] is more than 600000 nM. The same compound showed an EC50 in the experiment with P. falciparum 3D7 of 50 nM. `Cc1cc(Nc2cnc3ccccc3c2)n2ncnc2n1` [5-methyl-N-(quinolin-3-yl)-[1,2,4]triazolo[1,5-a]pyrimidin-7-amine]: the IC50 is more than 200000 nM in experiment [1] and 2000 nM in experiment [2] (read-out: IC50 pf DHODH).

As usually defined, the IC50 is the concentration needed to halve the response being measured. By EC50 is commonly meant the concentration that produces a half-maximal response.
